In ChEMBL document CHEMBL1201862, “PubChem BioAssay data set” (2004):
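Following 48 hours of exposure in 96-well plates, responses at five concentrations were used to interpolate endpoints linearly. GI50 is the concentration that inhibits growth by half.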 Calls of active or inactive are those of the source. Cut-off read from the data, not from the text of the source: active = GI50 up to about 1.1 µM and inactive = higher.

Experiments:
Assay in all cases: NCI anticancer screen, dose series, 48 h
786-0 = test system: 786-0
A498 = test system: A498
A549 = test system: A549
ACHN = test system: ACHN
CAKI-1 = test system: CAKI-1
CCRF-CEM = test system: CCRF-CEM
COLO 205 = test system: COLO 205
DLD-1 = test system: DLD-1
DMS-114 = test system: DMS-114
DMS-273 = test system: DMS-273
EKVX = test system: EKVX
HCC 2998 = test system: HCC 2998
HCT-116 = test system: HCT-116
HCT-15 = test system: HCT-15
HL-60 = test system: HL-60
HOP-18 = test system: HOP-18
HOP-62 = test system: HOP-62
HOP-92 = test system: HOP-92
HT-29 = test system: HT-29
IGROV-1 = test system: IGROV-1
K562 = test system: K562
KM-20L2 = test system: KM-20L2
KM12 = test system: KM12
LOX IMVI = test system: LOX IMVI
LXFL 529 = test system: LXFL 529
M14 = test system: M14
M19-MEL = test system: M19-MEL
MOLT-4 = test system: MOLT-4
Malme-3M = test system: Malme-3M
NCI-H226 = test system: NCI-H226
NCI-H23 = test system: NCI-H23
NCI-H460 = test system: NCI-H460
NCI-H522 = test system: NCI-H522
OVCAR-3 = test system: OVCAR-3
OVCAR-4 = test system: OVCAR-4
OVCAR-5 = test system: OVCAR-5
OVCAR-8 = test system: OVCAR-8
RPMI-8226 = test system: RPMI-8226
RXF 393 = test system: RXF 393
SF-268 = test system: SF-268
SF-295 = test system: SF-295
SF-539 = test system: SF-539
SK-MEL-28 = test system: SK-MEL-28
SK-MEL-2 = test system: SK-MEL-2
SK-MEL-5 = test system: SK-MEL-5
SK-OV-3 = test system: SK-OV-3
SN12C = test system: SN12C
SNB-19 = test system: SNB-19
SNB-75 = test system: SNB-75
SR = test system: SR
SW-620 = test system: SW-620
TK-10 = test system: TK-10
U-251 = test system: U-251
UACC-257 = test system: UACC-257
UACC-62 = test system: UACC-62
UO-31 = test system: UO-31
XF498 = test system: XF498

CC1(C)OC2OC(COC(=O)C(c3ccccc3)c3ccccc3)C3OC(C)(C)OC3C2O1 (configuration not stated)
GI50 (786-0): 24.7 µM (inactive)
GI50 (A498): > 10 µM (inactive)
GI50 (A549): 26.1 µM (inactive)
GI50 (ACHN): 29.7 µM (inactive)
GI50 (CAKI-1): > 10 µM (inactive)
GI50 (CCRF-CEM): 17.1 µM (inactive)
GI50 (COLO 205): 31 µM (inactive)
GI50 (DLD-1): 7.98 µM (inactive)
GI50 (DMS-114): 22.2 µM (inactive)
GI50 (DMS-273): 9.02 µM (inactive)
GI50 (EKVX): > 10 µM (inactive)
GI50 (HCC 2998): > 10 µM (inactive)
GI50 (HCT-116): > 10 µM (inactive)
GI50 (HCT-15): 6.73 µM
GI50 (HL-60): 4.21 µM (inactive)
GI50 (HOP-18): > 10 µM (inactive)
GI50 (HOP-62): > 10 µM (inactive)
GI50 (HOP-92): 61.8 µM (inactive)
GI50 (HT-29): 8.79 µM (inactive)
GI50 (IGROV-1): > 10 µM (inactive)
GI50 (K562): 4.29 µM (inactive)
GI50 (KM-20L2): 50.2 µM (inactive)
GI50 (KM12): 5.87 µM (inactive)
GI50 (LOX IMVI): 9.68 µM (inactive)
GI50 (LXFL 529): > 10 µM (inactive)
GI50 (M14): 93.1 µM (inactive)
GI50 (M19-MEL): 66.7 µM (inactive)
GI50 (MOLT-4): 5.02 µM (inactive)
GI50 (Malme-3M): 46.8 µM (inactive)
GI50 (NCI-H226): > 10 µM (inactive)
GI50 (NCI-H23): 20.1 µM (inactive)
GI50 (NCI-H460): 4.84 µM (inactive)
GI50 (NCI-H522): 21.6 µM (inactive)
GI50 (OVCAR-3): > 10 µM (inactive)
GI50 (OVCAR-4): 8.71 µM (inactive)
GI50 (OVCAR-5): > 10 µM (inactive)
GI50 (OVCAR-8): 53 µM (inactive)
GI50 (RPMI-8226): 4.5 µM (inactive)
GI50 (RXF 393): 12.3 µM (inactive)
GI50 (SF-268): 16.9 µM (inactive)
GI50 (SF-295): 10.7 µM (inactive)
GI50 (SF-539): 95.9 µM (inactive)
GI50 (SK-MEL-28): 43.5 µM (inactive)
GI50 (SK-MEL-2): 46.8 µM (inactive)
GI50 (SK-MEL-5): 7.11 µM (inactive)
GI50 (SK-OV-3): > 10 µM (inactive)
GI50 (SN12C): 90.2 µM (inactive)
GI50 (SNB-19): 66.7 µM (inactive)
GI50 (SNB-75): 17.1 µM (inactive)
GI50 (SR): > 10 µM (inactive)
GI50 (SW-620): 6.87 µM (inactive)
GI50 (TK-10): > 10 µM (inactive)
GI50 (U-251): > 10 µM (inactive)
GI50 (UACC-257): > 10 µM (inactive)
GI50 (UACC-62): 9.27 µM (inactive)
GI50 (UO-31): 35.5 µM (inactive)
GI50 (XF498): 14.7 µM (inactive)
